# Measured values from patent US8946263B2, “Compositions and methods for modulating circadian synchronization” (Max-Planck-Gesellchaft zur Forderung der Wissenschaften E.V., priority 2011, dated 2015).
# What was measured:
# [1] = tested on: corticosterone excretion rhythms; assay: Fecal corticosterone excretion rhythm after 16 days of timed metyrapone injection; assay type: in vivo, mouse; conditions: for direction of shift of the peak of maximum glucocorticoid levels: mice
# Description: Fecal samples were collected at 4-hour intervals before and after the jet lag treatment using wheel cages equipped with wire grid floors. To rule out stress-induced effects, animals were transferred to the collection cages 3 days prior to the first sampling interval. Fecal samples were stored at −80° C. Corticoid metabolite extraction and quantification by RIA (MP Biomedicals) were performed as described previously (Abraham et al. 2006).
# Administration of metyrapone (Sigma-Aldrich) to WT mice was done for 16 days prior to the jet lag procedure (see above). Two sets of 24 animals each received metyrapone dissolved in water (100 mg/kg body weight per day) via i.p. injection at different times during the day. Injections were stopped 1 day before the LD shift (day 0). METD animals were injected during the first half of their rest phase at ZT3; METN animals received metyrapone injections at the beginning of their activity phase at ZT12. At day 16 of the treatment (day-1 relative to LD shift), fecal samples were collected to analyze the phase shift of corticoid excretion rhythms. Saline-treated (0.9% NaCl) WT littermates injected at ZT3 or ZT12 were used as controls for all experiments.
# Peak time analyses were performed using Prism software (GraphPad). A sine wave equation, y=BaseLine+Amplitude sin(frequency x+PhaseShift), was fitted to the data. For gene expression and corticosterone data, frequency was fixed to 24 hours. Maxima were calculated using the axis section of the second derivative. To determine PS50, a sigmoid dose-response curve with variable slope was fitted to the sine wave maxima (corticosterone), y=Bottom+(Top−Bottom) (1+10(log PS50−x) HillSlope), or onset time points (locomotor activity) for each group. To test whether the best-fit PS50 values differed between data sets, data were compared by extra sum-of-squares F test using a P value of less than 0.05 as a threshold. Maxima of gene expression or corticosterone at specific days were compared by Mann-Whitney rank sum test, even if normality tests and equal variance tests were positive, reflecting the small sample sizes of 3-9. A statistically significant difference was assumed with P values less than 0.05. Correlations between phase-shift activity onsets and corticosterone maxima were performed using linear regression. The quality of fit was estimated by r determination. Departure from linearity was tested with runs test. Normality and homoscedasticity tests were passed for all data sets. Diurnal variation of expression data was tested using Fourier analysis with CircWave version 3.3 software (Oster et al. 2006) and threshold values of 0.05 for α and a period of 24 hours.
# WT (C57BL/6J) mice [2] = assay: Behavioral reentrainment (wheel-running activity onsets) after 6-hour phase advance of the LD cycle; assay type: in vivo, mouse
# Description: (§1) Handling and activity measurements during experiments were performed as described previously (Jud et al. 2005). Wheel-running activity was analyzed using ClockLab software (Actimetrics). For the jet lag experiment (6-hour rapid advance or 8-hour rapid delay of the LD cycle), animals were single-housed in running wheel-equipped cages for 2 weeks or longer under LD conditions (lights on, ZT0; light intensities of 350 lux). On day 1 of the jet lag, the lights-off time (ZT12) was shifted from 6 pm to […] (phase advance paradigm) or from 6 pm to 2 am (phase delay paradigm). Using a short day protocol, we defined day 1 as the first advanced dark period (similar to Davidson et al. 2009, who used a short night approach in which the first day is defined by the deemed light period; but different from Yamazaki et al. 2000, where the following day—corresponding to day 2 in our study—was referred to as day 1). […] Animals were synchronized to the new LD regimen for another 2 weeks during which time of wheel-running activity was recorded. Individual activity onsets before and after the shift were determined by visual inspection and averaged over the whole cohort to asses reentrainment rates. […]
# (§2) Peak time analyses were performed using Prism software (GraphPad). […] Maxima were calculated using the axis section of the second derivative. […]
# WT (C57BL/6J) mice [3] = assay: Behavioral reentrainment (wheel-running activity onsets) after 8-hour phase delay of the LD cycle; assay type: in vivo, mouse
# Description: as §1, §2
# WT (C57BL/6J) mice [4] = assay: Observations during the 16-day metyrapone injection period before jet lag; assay type: in vivo, mouse; conditions: for effect on the onset of wheel-running activity: during injection period
# Description: Handling and activity measurements during experiments were performed as described previously (Jud et al. 2005). Wheel-running activity was analyzed using ClockLab software (Actimetrics). For the jet lag experiment (6-hour rapid advance or 8-hour rapid delay of the LD cycle), animals were single-housed in running wheel-equipped cages for 2 weeks or longer under LD conditions (lights on, ZT0; light intensities of 350 lux). On day 1 of the jet lag, the lights-off time (ZT12) was shifted from 6 pm to […] (phase advance paradigm) or from 6 pm to 2 am (phase delay paradigm). Using a short day protocol, we defined day 1 as the first advanced dark period (similar to Davidson et al. 2009, who used a short night approach in which the first day is defined by the deemed light period; but different from Yamazaki et al. 2000, where the following day—corresponding to day 2 in our study—was referred to as day 1). For the delay experiment (8-hour rapid delay of the LD cycle), animals were housed in running wheel—equipped single cages for 2 weeks or longer under LD conditions (lights on, ZT0; light intensities of 50 lux). On day 1 of the jet lag, the lights-off time (ZT12) was shifted from 12 pm to 8 pm. Day 1 was defined here as the day with the first delayed dark period. Animals were synchronized to the new LD regimen for another 2 weeks during which time of wheel-running activity was recorded. Individual activity onsets before and after the shift were determined by visual inspection and averaged over the whole cohort to asses reentrainment rates. Administration of metyrapone (Sigma-Aldrich) to WT mice was done for 16 days prior to the jet lag procedure (see above). Two sets of 24 animals each received metyrapone dissolved in water (100 mg/kg body weight per day) via i.p. injection at different times during the day. Injections were stopped 1 day before the LD shift (day 0). METD animals were injected during the first half of their rest phase at ZT3; METN animals received metyrapone injections at the beginning of their activity phase at ZT12. […]
# hamsters = conditions: cited from earlier work
# [5] = METD (ZT3 injection, 16 days before shift) vs SALD
# [6] = METN (ZT12 injection, 16 days before shift) vs SALN
SMILES,"amplitude of glucocorticoid excretion rhythms ([1]; METD and METN, 16 days of treatment, data not shown)","forward shift of corticosterone maximum relative to SALD control ([1]; METD: 100 mg/kg/day i.p. at ZT3 (rest phase) for 16 days, day prior to phase shift) [h]",backward shift of peak corticosterone relative to SALN ([1]; METN: 100 mg/kg/day i.p. at ZT12 (beginning of activity phase) for 16 days) [h],direction of shift of the peak of maximum glucocorticoid levels ([1]; administration at 6 pm (first half of the active phase)),direction of shift of the peak of maximum glucocorticoid levels ([1]; administration at 9 am (first half of rest phase)),activity resetting after 6-hour phase advance (WT (C57BL/6J) mice [2]; [5]),activity resetting after 6-hour phase advance (WT (C57BL/6J) mice [2]; [6]),behavioral adaptation after 8-hour phase delay (WT (C57BL/6J) mice [3]; [5]),behavioral adaptation after 8-hour phase delay (WT (C57BL/6J) mice [3]; [6]),effect on the onset of wheel-running activity (WT (C57BL/6J) mice [4]; METD mice),effect on the onset of wheel-running activity (WT (C57BL/6J) mice [4]; METN mice),"side effect of injection (WT (C57BL/6J) mice [4]; daily i.p. injection, 100 mg/kg, 16 days)",circadian responses to light (hamsters),reentrainment after phase advances of the LD cycle (hamsters)
"CC(C)(C(=O)c1cccnc1)c1cccnc1 [metyrapone, 2-methyl-1,2-di-3-pyridyl-1-propanone]",did not significantly change,1,1,backward shift,forward shift,accelerated activity resetting,reentrained slower,decelerated adaptation,more rapid behavioural adaptation,no effect,only minor effect,transient drowsiness,–,–
CCCc1nn(C)c2c(=O)[nH]c(-c3cc(S(=O)(=O)N4CCN(C)CC4)ccc3OCC)nc12 [sildenafil],–,–,–,–,–,–,–,–,–,–,–,–,enhances circadian responses to light,accelerates reentrainment
